# Reference: patent publication US5574033A, “Heterocyclic compound and cardiotonic agent containing the same as effective component” (Zenyaku Kogyo Kabushiki Kaisha, priority 1991, dated 1996)
# Legend:
# [1] = tested on: papillary muscles of a right ventricle; assay: Pharmacological Test 1: contraction of isolated right ventricular papillary muscles upon electric stimulation (inotropic effect); set-up: species or system male Hartley guinea pig; details: 3×10^-5 M; percentage of increment of contractile force, isoprotelenol (1×10^-8 M) = 100%; 1 Hz stimulation, 30° C.
# Procedure: (§1) Nos. of the compounds in the pharmacological tests 1 and 2 correspond to those in Examples referred to hereinafter.
# (§2) A heart was removed from a male Hartley guinea pig (having a body weight of about 400 g or so) and a right atrium and papillary muscles of a right ventricle were separated from the removed heart. These preparations were suspended in 15 ml of Magnus' bath under load of 0.5 g (papillary muscles) or 1.0 g (right atria). Contraction of papillary muscles upon electric stimulation (1 Hz, 5 msec, 1.5×threshold voltage) and spontaneous contraction of the right atria were recorded through a transducer (manufactured by Orientec, T7-8-240) by a polygraph system (manufactured by NIHONKOHDEN, RMP-6008 and WT-685G).
# (§3) Krebs-Henseleit solution was used as nutritive liquid bubbled with mixed gases of 95% O2 with 5% CO2 at 30° C. The value of inotropic effect is a percentage of increment of contractile force by samples when that by isoprotelenol (1×10^-8 M) is considered to be 100%. The value of chronotropic effect is a percentage of atrial rate after the injection of samples when the atrial rate before the injection is considered to be 100%.
# right atria = assay: Pharmacological Test 1: spontaneous contraction of isolated right atria (chronotropic effect); set-up: species or system male Hartley guinea pig; details: Cavia porcellus; 3×10^-5 M; percentage of atrial rate after injection, rate before injection = 100%; 30° C.
# Procedure: as §1, §2, §3
Compound,Inotropic Effect [1] [%],activity at 30 µM (right atria) [%]
"CC1SC(C2=CCN(CC(O)c3ccc(Cl)cc3)CC2)=NNC1=O (centres unmarked) [Compound 14, 2-[1-[2-(4-Chlorophenyl)-2-hydroxyethyl]-1,2,5,6-tetrahydropyrid-4-yl]-6-methyl-4H,6H-1,3,4-thiadiazin-5-one]",26.3,73.5
"O=C1CCC(C2=CCN(CC(O)c3ccccc3C(F)(F)F)CC2)=NN1 (centres unmarked) [Compound 54, 4,5-Dihydro-6-[1-[2-hydroxy-2-[2-(trifluoromethyl)phenyl]ethyl]-1,2,5,6-tetrahydropyrid-4-yl]pyridazin-3 (2H) -one]",25.2,97.3
"Cc1ccc(C(O)CN2CC=C(C3=NNC(=O)CS3)CC2)c(C)c1 (centres unmarked) [Compound 25, 2-[1-[2-Hydroxy-2-(2,4-dimethylphenyl)ethyl]-1,2,5,6-tetrahydropyrid-4-yl]-4H,6H-1,3,4-thiadiazin-5-one]",58.5,65.2
"O=C1CSC(C2=CCN(CC(O)c3ccccc3[N+](=O)[O-])CC2)=NN1 (centres unmarked) [Compound 29, 2-[1-[2-Hydroxy-2-(2-nitrophenyl)ethyl]-1,2,5,6-tetrahydropyrid-4-yl]-4H,6H-1,3,4-thiadiazin-5-one]",79.3,101
"O=C1CSC(C2=CCN(CC(O)c3cccc(O)c3)CC2)=NN1 (centres unmarked) [Compound 27, 2-[1-[2-Hydroxy-2-(3-hydroxyphenyl)ethyl]-1,2,5,6-tetrahydropyrid-4-yl]-4H,6H-1,3,4-thiadiazin-5-one]",63.1,98.7
"O=C1CCC(C2=CCN(CC(O)c3ccc([N+](=O)[O-])cc3)CC2)=NN1 (centres unmarked) [Compound 53, 4,5-Dihydro-6-[1-[2-hydroxy-2-(4-nitrophenyl)ethyl]-1,2,5,6-tetrahydropyrid-4-yl]pyridazin-3 (2H)-one]",102.9,87.8
"O=C1CSC(C2=CCN(CC(O)c3ccc(F)cc3)CC2)=NN1 (centres unmarked) [Compound 35, 2-[1-[2-(4-Fluorophenyl)-2-hydroxyethyl]-1,2,5,6-tetrahydropyrid-4-yl]-4H,6H-1,3,4-thiadiazin-5-one]",63.5,90.7
"COc1ccc(C(O)CN2CC=C(C3=NNC(=O)CS3)CC2)cc1 (centres unmarked) [Compound 1, 2-[1-[2-Hydroxy-2-(4-methoxyphenyl)ethyl]-1,2,5,6-tetrahydropyrid-4-yl]-4H,6H-1,3,4-thiadiazin-5-one]",55.7,87.6
"O=C1CSC(C2=CCN(CC(O)c3ccc(Cl)cc3)CC2)=NN1 (centres unmarked) [Compound 13, 2-[1-[2-(4-Chlorophenyl)-2-hydroxyethyl]-1,2,5,6-tetrahydropyrid-4-yl]-4H,6H-1,3,4-thiadiazin-5-one]",72.2,93.4
"O=C1NN=C(c2ccncc2)CS1 [b, 5-(4-Pyridyl)-3H,6H-1,3,4-thiadiazin-2-one, reference compound]",36.2,117
"O=C1CCC(C2=CCN(CC(O)c3ccccc3Cl)CC2)=NN1 (centres unmarked) [Compound 50, 6-[1-[2-(2-Chlorophenyl)-2-hydroxyethyl]-1,2,5,6-tetrahydropyrid-4-yl]-4,5-dihydropyridazin-3 (2H)-one]",38.9,98.6
"COc1ccc(C(CN2CC=C(C3=NNC(=O)CS3)CC2)OC)cc1 (centres unmarked) [Compound 70, 2-[1-[2-Methoxy-2-(4-methoxyphenyl)ethyl]-1,2,5,6-tetrahydropyrid-4-y1]-4H,6H-1,3,4-thiadiazin-5-one]",56.0,99.2
"O=C1CSC(C2=CCN(CC(O)c3ccc([N+](=O)[O-])cc3)CC2)=NN1 (centres unmarked) [Compound 31, 2-[1-[2-Hydroxy-2-(4-nitrophenyl)ethyl]-1,2,5,6-tetrahydropyrid-4-yl]-4H,6H-1,3,4-thiadiazin-5-one]",74.7,90.4
"O=C1CSC(C2=CCN(CC(O)c3cccc([N+](=O)[O-])c3)CC2)=NN1 (centres unmarked) [Compound 30, 2-[1-[2-Hydroxy-2-(3-nitrophenyl)ethyl]-1,2,5,6-tetrahydropyrid-4-yl]-4H,6H-1,3,4-thiadiazin-5-one]",113.9,100
"O=C1NN=C(C2=CCN(CC(O)c3ccc4ccccc4c3)CC2)CS1 (centres unmarked) [Compound 69, 5-[1-[2-Hydroxy-2-(2-naphthyl)ethyl]-1,2,5,6-tetrahydropyrid-4-yl]-3H, 6H-1,3,4-thiadiazin-2-one]",28.6,79.7
"O=C1NN=C(C2=CCN(CC(O)c3cccc(C(F)(F)F)c3)CC2)CS1 (centres unmarked) [Compound 48, 5-[1-[2-Hydroxy-2-[3-(trifluoromethyl)phenyl]ethyl]-1,2,5,6-tetrahydropyrid-4-yl]-3H,6H-1,3,4-thiadiazin-2-one]",45.4,77.7

Compound,Inotropic Effect [1] [%],activity at 30 µM (right atria) [%]
"O=C1CSC(C2=CCN(CC(O)c3ccc(Cl)cc3Cl)CC2)=NN1 (centres unmarked) [Compound 17, 2-[1-[2-(2,4-Dichlorophenyl)-2-hydroxyethyl]-1,2,5,6-tetrahydropyrid-4-yl]-4H,6H-1,3,4-thiadiazin-5-one]",45.0,85.8
"COc1ccc(C(CN2CC=C(C3=NNC(=O)CS3)CC2)OC(C)C)cc1 (centres unmarked) [Compound 71, 2-[1-[2-Isopropoxy-2-(4-methoxyphenyl)ethyl]-1,2,5,6-tetrahydropyrid-4-yl]-4H,6H-1,3,4-thiadiazin-5-one]",25.3,98.7
"O=C1CNC(C2=CCN(CC(O)c3ccc([N+](=O)[O-])cc3)CC2)=NN1 (centres unmarked) [Compound 60, 4,5-Dihydro-3-[1-[2-hydroxy-2-(4-nitrophenyl)ethyl]-1,2,5,6-tetrahydropyrid-4-yl]-1,2,4-triazin-6(1H)-one]",43.8,92.6
"O=C1CSC(C2=CCN(CC(O)c3ccc(Cl)c(Cl)c3)CC2)=NN1 (centres unmarked) [Compound 18, 2-[1-[2-(3,4-Dichlorophenyl)-2-hydroxyethyl]-1,2,5,6-tetrahydropyrid-4-yl]-4H,6H-1,3,4-thiadiazin-5-one]",52.2,97.8
"O=C1CSC(c2ccncc2)=NN1 [a, 2-(4-Pyridyl)-4H,6H-1,3,4-thiadiazin-5-one, reference compound]",22.2,159
"Cc1ccc(C(O)CN2CC=C(C3=NNC(=O)SC3)CC2)cc1 (centres unmarked) [Compound 43, 5-[1-[2-Hydroxy-2-(4-methylphenyl)ethyl]-1,2,5,6-tetrahydropyrid-4-yl]-3H,6H-1,3,4-thiadiazin-2-one]",57.2,85.2
"O=C1CNC(C2=CCN(CC(O)c3ccc(Cl)cc3)CC2)=NN1 (centres unmarked) [Compound 57, 3-[1-[2-(4-Chlorophenyl)-2-hydroxyethyl]-1,2,5,6-tetrahydropyrid-4-yl]-4,5-dihydro-1,2,4-triazin-6 (1H)-one]",46.8,94.9
"COc1cccc(C(O)CN2CC=C(C3=NNC(=O)CS3)CC2)c1 (centres unmarked) [Compound 7, 2-[1-[2-Hydroxy-2-(3-methoxyphenyl)ethyl]-1,2,5,6-tetrahydropyrid-4-yl]-4H,6H-1,3,4-thiadiazin-5-one]",54.0,95.2
"COc1ccc(C(O)CN2CC=C(C3=NNC(=O)CC3)CC2)cc1 (centres unmarked) [Compound 49, 4,5-Dihydro-6-[1-[2-hydroxy-2-(4-methoxyphenyl)ethyl]-1,2,5,6-tetrahydropyrid-4-yl]pyridazin-3(2H)-one]",27.7,87.6
"Cc1cccc(C(O)CN2CC=C(C3=NNC(=O)CS3)CC2)c1 (centres unmarked) [Compound 20, 2-[1-[2-Hydroxy-2-(3-methylphenyl)ethyl]-1,2,5,6-tetrahydropyrid-4-yl]-4H,6H-1,3,4-thiadiazin-5-one]",65.7,87.5
"COc1ccc(C(O)CN2CC=C(C3=NNC(=O)SC3)CC2)cc1 (centres unmarked) [Compound 39, 5-[1-[2-Hydroxy-2-(4-methoxyphenyl)ethyl]-1,2,5,6tetra-hydropyrid-4-yl]-3H,6H-1,3,4-thiadiazin-2-one]",28.3,75.7
"O=C1NN=C(C2=CCN(CC(O)c3ccc([N+](=O)[O-])cc3)CC2)CS1 (centres unmarked) [Compound 45, 5-[1-[2-Hydroxy-2-(4-nitrophenyl)ethyl]-1,2,5,6-tetrahydropyrid-4-yl]-3H,6H-1,3,4-thiadiazin-2-one]",99.5,79.1
"COc1ccc(OC)c(C(O)CN2CC=C(C3=NNC(=O)CS3)CC2)c1 (centres unmarked) [Compound 8, 2-[1-[2-Hydroxy-2-(2,5-dimethoxyphenyl)ethyl]-1,2,5,6-tetrahydropyrid-4-yl]-4H,6H-1,3,4-thiadiazin-5-one]",50.4,89
"Cc1ccc(C(O)CN2CC=C(C3=NNC(=O)C(C)S3)CC2)cc1 (centres unmarked) [Compound 22, 2-[1-[2-Hydroxy-2-(4-methylphenyl)ethyl]-1,2,5,6-tetrahydropyrid-4-yl]-6-methyl-4H,6H-1,3,4-thiadiazin-5-one]",30.4,76.7
"O=C1NN=C(C2=CCN(CC(O)c3cccc(O)c3)CC2)CS1 (centres unmarked) [Compound 44, 5-[1-[2-Hydroxy-2-(3-hydroxyphenyl)ethyl]-1,2,5,6-tetrahydropyrid-4-yl]-3H,6H-1,3,4-thiadiazin-2-one]",39.9,101
